Test results as given in patent publication US9150577B2, “Heterocyclic compounds containing an indole core” (Boehringer Ingelheim International GmbH, priority 2009, dated 2015).

Target: Human RSK2 (Homo sapiens (Human), UniProt P51812)
Experiment: Human RSK2 assay (Kinase Glo Plus, residual ATP);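 further: recombinant human RSK2 phosphorylating a substrate peptide, 90 min at 28 °C, leftover ATP read by luminescence, RLU scaled between no-kinase background and uninhibited kinase controls, 4-parameter fit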
Assay type: biochemical

Chain of Human RSK2 (P51812 whole entry): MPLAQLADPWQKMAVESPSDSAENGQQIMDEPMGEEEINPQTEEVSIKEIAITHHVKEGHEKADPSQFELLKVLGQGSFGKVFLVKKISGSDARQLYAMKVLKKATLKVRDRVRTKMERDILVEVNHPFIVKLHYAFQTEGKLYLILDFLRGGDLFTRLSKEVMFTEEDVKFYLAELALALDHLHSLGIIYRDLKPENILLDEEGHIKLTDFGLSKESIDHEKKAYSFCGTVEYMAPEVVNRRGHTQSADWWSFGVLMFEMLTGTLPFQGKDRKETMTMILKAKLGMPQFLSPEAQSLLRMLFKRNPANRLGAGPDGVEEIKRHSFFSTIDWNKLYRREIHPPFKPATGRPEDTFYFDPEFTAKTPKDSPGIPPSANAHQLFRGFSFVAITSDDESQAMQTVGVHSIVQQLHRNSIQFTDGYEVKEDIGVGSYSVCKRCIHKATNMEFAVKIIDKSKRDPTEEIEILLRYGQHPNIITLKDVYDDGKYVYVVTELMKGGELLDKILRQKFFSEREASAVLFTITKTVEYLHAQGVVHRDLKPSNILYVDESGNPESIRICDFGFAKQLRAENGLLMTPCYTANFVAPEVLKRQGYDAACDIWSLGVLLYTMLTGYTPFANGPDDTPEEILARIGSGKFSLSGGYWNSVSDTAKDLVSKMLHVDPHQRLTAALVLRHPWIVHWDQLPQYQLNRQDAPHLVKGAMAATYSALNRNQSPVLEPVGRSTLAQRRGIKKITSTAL

SMILES	IC50 [nM]
CC(C)(CO)n1c(NC(=O)c2ccc3cc4n(c3c2)CCCNC4=O)nc2ccccc21 [Example 66, N-[1-(1-hydroxy-2-methylpropan-2-yl)-1H-benzimidazol-2-yl]-1-oxo-2,3,4,5-tetrahydro-1H-[1,4]diazepino[1,2-a]indole-8-carboxamide]	610
CC(C)n1c(NC(=O)c2ccc3cc4n(c3c2)[C@@H](C)CNC4=O)nc2ccccc21 [Example 69, (4S)-4-methyl-1-oxo-N-[1-(propan-2-yl)-1H-benzimidazol-2-yl]-1,2,3,4-tetrahydropyrazino[1,2-a]indole-7-carboxamide]	21
O=C(Nc1nc2ccccc2n1C1CCCC1)c1ccc2cc3n(c2c1)CCCNC3=O [Example 75, N-(1-cyclopentyl-1H-benzimidazol-2-yl)-1-oxo-2,3,4,5-tetrahydro-1H-[1,4]diazepino[1,2-a]indole-8-carboxamide]	25
CN1CCC(n2c(NC(=O)c3ccc4cc5n(c4c3)CCCNC5=O)nc3ccccc32)CC1 [Example 77, N-[1-(1-methylpiperidin-4-yl)-1H-benzimidazol-2-yl]-1-oxo-2,3,4,5-tetrahydro-1H-[1,4]diazepino[1,2-a]indole-8-carboxamide]	14
CC(=O)N1CCC(n2c(NC(=O)c3ccc4cc5n(c4c3)CCCNC5=O)nc3ccccc32)CC1 [Example 78, N-[1-(1-acetylpiperidin-4-yl)-1H-benzimidazol-2-yl]-1-oxo-2,3,4,5-tetrahydro-1H-[1,4]diazepino[1,2-a]indole-8-carboxamide]	58
CN(C)CC(C)(C)Cn1c(NC(=O)c2ccc3cc4n(c3c2)CCCNC4=O)nc2ccccc21 [Example 84, N-{1-[3-(dimethylamino)-2,2-dimethylpropyl]-1H-benzimidazol-2-yl}-1-oxo-2,3,4,5-tetrahydro-1H-[1,4]diazepino[1,2-a]indole-8-carboxamide]	30

Now those with a lower IC50, led by results:

IC50 [nM]	SMILES
1.9	CC(C)n1c(NC(=O)c2ccc3cc4n(c3c2)[C@H](C)CNC4=O)nc2ccccc21 [Example 68, (4R)-4-methyl-1-oxo-N-[1-(propan-2-yl)-1H-benzimidazol-2-yl]-1,2,3,4-tetrahydropyrazino[1,2-a]indole-7-carboxamide]
2	CC(C)n1c(NC(=O)c2ccc3cc4n(c3c2)C(C)(C)CNC4=O)nc2ccccc21 [Example 73, 4,4-dimethyl-1-oxo-N-[1-(propan-2-yl)-1H-benzimidazol-2-yl]-1,2,3,4-tetrahydropyrazino[1,2-a]indole-7-carboxamide]
7.3	CC(C)n1c(NC(=O)c2ccc3cc4n(c3c2)C(C)CNC4=O)nc2ccccc21 (stereo not shown) [Example 74, 4-methyl-1-oxo-N-[1-(propan-2-yl)-1H-benzimidazol-2-yl]-1,2,3,4-tetrahydropyrazino[1,2-a]indole-7-carboxamide]
0.25	CCn1c(NC(=O)c2ccc3cc4n(c3c2)C(C)(C)CNC4=O)nc2ccccc21 [Example 82, N-(1-ethyl-1H-benzimidazol-2-yl)-4,4-dimethyl-1-oxo-1,2,3,4-tetrahydropyrazino[1,2-a]indole-7-carboxamide]
0.63	CCn1c(NC(=O)c2ccc3cc4n(c3c2)C(C)CNC4=O)nc2ccccc21 (stereo not shown) [Example 83, N-(1-ethyl-1H-benzimidazol-2-yl)-4-methyl-1-oxo-1,2,3,4-tetrahydropyrazino[1,2-a]indole-7-carboxamide]
5.4	CC(C)(O)Cn1c(NC(=O)c2ccc3cc4n(c3c2)CCCNC4=O)nc2ccccc21 [Example 85, N-[1-(2-hydroxy-2-methylpropyl)-1H-benzimidazol-2-yl]-1-oxo-2,3,4,5-tetrahydro-1H-[1,4]diazepino[1,2-a]indole-8-carboxamide]
5.9	CC(C)(O)Cn1c(NC(=O)c2ccc3cc4n(c3c2)CC(C)(C)CNC4=O)nc2ccccc21 [Example 86, N-[1-(2-hydroxy-2-methylpropyl)-1H-benzimidazol-2-yl]-4,4-dimethyl-1-oxo-2,3,4,5-tetrahydro-1H-[1,4]diazepino[1,2-a]indole-8-carboxamide]
